For assay [1], the system named is E. coli BL21(DE3)/pET30a-IMP-1. Format: cell-based. As to conditions: thioester conc giving 4-fold increase in sensitivity to the Merck carbapenem (0.25x MIC), no visible growth after 20 hours at 35° C. An excerpt: A laboratory strain of E.coli engineered to express IMP-1 was used to evaluate the ability of thiol derivatives to reverse metallo-β-lactamase-mediated carbapenem resistance in bacteria. Native IMP-1, which included the N-terminal periplasmic signal sequence, was PCR amplified from […] isolated from a carbapenem resistant P. aeruginosa clinical isolate, CL56673, and cloned into the pET30a vector.

Another assay concerns E. coli BL21(DE3). In words: Carbapenem sensitivity (MIC) of E. coli BL21(DE3) with and without IMP-1 expression. It is filed as cell-based. Conditions: for fold reduced sensitivity caused by basal (uninduced) IMP-1 expression: pET30a-IMP-1 in E. coli BL21(DE3). How it is done:
A laboratory strain of E.coli engineered to express IMP-1 was used to evaluate the ability of thiol derivatives to reverse metallo-β-lactamase-mediated carbapenem resistance in bacteria. Native IMP-1, which included the N-terminal periplasmic signal sequence, was PCR amplified from […] isolated from a carbapenem resistant P. aeruginosa clinical isolate, CL56673, and cloned into the pET30a vector. […] Various concentrations of IMP-1 inhibitor were added to the bacterial growth medium and their capacity to effect a four-fold or greater increase in sensitivity to the carbapenem was monitored.

This is an account of results in patent publication US20020019543A1, “Thiol derivative, metallo-beta-lactamase inhibitors” (priority 2000, published 2002).

`CC(=O)N[C@H](C)C(=O)S[C@H](Cc1ccc(-c2ccccc2)cc1)C(=O)O` [Example 13]: the “Effective conc for 4-fold reduction of MIC in E. coli” value (shortened to “Effective conc for 4-fold reduction”) in assay [1] was 6.3 µM.

For `CC(=O)SC(Cc1ccc2oc3ccccc3c2c1)C(=O)O` (centres unmarked) [Example 78], the “Effective conc for 4-fold reduction” value in assay [1] is recorded as “≦0.1 μM”.

As to `O=C(SC(Cc1ccc2oc3ccccc3c2c1)C(=O)O)c1ccccc1` (centres unmarked) [Example 79], the “Effective conc for 4-fold reduction” value in assay [1] is 0.2 µM.

Consider `C[C@@H](O)[C@H]1C(=O)N2C(C(=O)O)=C(SCCN=CN)C[C@H]12` [impenem], for which the “fold reduced sensitivity caused by basal (uninduced) IMP-1 expression” value (“fold reduced sensitivity caused by basal” for short) in the assay on E. coli BL21(DE3) worked out at 4 fold.

Regarding `C[C@@H](O)[C@H]1C(=O)N2C(C(=O)O)=C(S[C@@H]3CN[C@H](C(=O)N(C)C)C3)[C@H](C)[C@H]12` [meropenem], the “fold reduced sensitivity caused by basal” value with E. coli BL21(DE3) came out at 64 fold.

Turning to “(1S,5R,6S)-1-methyl-2-{7-[4-(aminocarbonylmethyl)-1,4-diazoniabicyclo(2.2.2)octan-1-yl]methyl-fluoren-9-on-3-yl}-6-(1R-hydroxyethyl)-carbapen-2-em-3-carboxylate chloride”, the “minimum inhibitory concentration (MIC), without IMP-1 expression” value with E. coli BL21(DE3) (E. coli BL21(DE3), before expression of IMP-1) was 0.06 to 0.12 µg/mL. The “minimum inhibitory concentration (MIC), with IMP-1 expression” value in the assay on E. coli BL21(DE3) (E. coli BL21(DE3)/pET30a-IMP-1, basal IMP-1 expression) lay in the range of 16 to 32 µg/mL. In addition, the “fold reduced sensitivity caused by basal” value in the assay with E. coli BL21(DE3) was determined as 500 fold.
